US20060134119A1, “Drugs containing galectin 9” (priority 2003, published 2006)

What was measured:
MOLT-4 cells = assay: Ca2+ influx, Fluo-3 assay by flow cytometry; assay type: cell-based, human; settings: Fluo-3 assay, FIG. 8
Description: Cells (approx. 10^6 to 10^7 cells/mL) in the culture medium (10% FCS, RPMI-1640 containing 10 mM HEPES, pH 7.2) were incubated with fluo-3 AM (final concentration 10 μM, Dojindo, Kumamoto, Japan), an intracellular calcium indicator, at 37° C. for 30 min (Sharp, B. M. et al., Proc. Natl. Acad. Sci. USA, 93: 8294 (1996)). Then the cells were washed and resuspended in the culture medium (final concentration, approx. 2×10^5 cells/mL per sample). Intracellular calcium level was measured by flow cytometry. The resting cells were stimulated at 1 min after their fluorescence intensities were measured.
Next, sequential measurement was restarted until different stimuli were applied. In lactose inhibition assay, cells were stimulated in the presence of 30 mM lactose. Sucrose (30 mM) was used as a control (Sano, H. et al., J. Imnunol., 165: 2156 (2000)). A23187 (calcium ionophore, final concentration 5 ng/mL, Wako, Osaka, Japan) was used as a positive control.

CD8 T Cell = assay: Apoptosis induction in non-activated normal CD8 T cells (Table 4); assay type: cell-based; settings: 1 μM galectin-9, 1 μM galectin-3
Description: For example, measurements of apoptosis induction in the presence of 1 μM galectin-9 are as shown in Table 4 below (also 1 μM for galectin-3 in Table 4).

Daudi = assay: Apoptosis analysis by PI method in Daudi cells; assay type: cell-based; settings: incubation with galectin-9 at least 48 hr or more
Description: Apoptotic activity was measured by the PI method. When cells are incubated with galectin-9, washed, then subjected to alcohol-fixation, and fragmented DNAs flow out of the cell. Subsequently, incubation with PI leads to a reduction in the fluorescence intensity of apoptotic cells. Apoptosis was examined by the percentage of the cells wherein their fluorescence intensity was reduced. […] This induction was at the same level as H2O2 (hydrogen peroxide solution) that was used as a positive control. In addition, the same results were obtained by another method for examining apoptosis, TUNEL assay.

In the case of “Galectin-9: Recombinant human galectin-9 expressed in E. coli and purified on lactose-agarose”, the calcium influx (MOLT-4 cells; A23187 final concentration 5 ng/mL) was “increased calcium influx”, the “time within which calcium influx increased after addition” value (MOLT-4 cells) was 10 to 20 s and the “apoptosis induction, CD8 T Cell Resting” value (CD8 T Cell) was 1.4. For the same substance, the “apoptosis induction, Gal9 (+)” value (Daudi) was 58.5.
